Where two headings read alike, the source gives them in different places.
Tests used:
[1] = system: human gastric cancer cells (SGC-7901); test: MTT tumor cell proliferation inhibition test, SGC-7901; assay type: cell-based; settings: SGC-7901 cells, 48 hours treatment, read-out: Half Inhibitory Concentration IC50 SGC-7901
Description: (§1) The compounds of the present invention were subjected to tumor cell proliferation inhibition test, and conventional MTT method was used.
(§2) Cell lines: human hepatoma cells (HepG2), human lung cancer cells (A-549), human gastric cancer cells (SGC-7901). The culture medium was DMEM+15% NBS+double antibody.
(§3) Sample solution preparation: after dissolving with DMSO (Merck), PBS (−) was added to obtain 100 μmol/L solution or homogeneous suspension. The solution was diluted with PBS (−) in DMSO to a final concentration of 0.1, 1, 10, 20, 40, 60, 80, 100 μmol/L.
(§4) Gossypol was used as control solution, prepared under the same condition.
(§5) Cell culture: adherent growth Tumor cells were cultured in 1640 medium containing 10% inactivated neonatal bovine serum and penicillin, streptomycin (1 million U/L), placed in carbon dioxide incubator at 37° C., 5% CO2, and saturated humidity. Cells were treated serially passaged 2-3 times. The first culture was washed with PBS 2 times, and digested with trypsin. Fresh culture medium was added evenly, cells were adjusted to a appropriate concentration and transferred into a new culture flask. Cell in an exponential phase were chosen for the tests.
(§6) MTT Assay for Cell Viability and IC50 Determination
(§7) Experimental Principle: Living cells mitochondria in the dehydrogenase can reduce yellow MTT to water-insoluble blue-violet product MT (MTT formazan), deposited in the cells. The amount of production is proportional to the number of living cells. […] DMSO can dissolve blue violet crystals, and the color depth is proportional to the amount contained, so the absorbance measured by the microplate reader can reflect the cell viability.
(§8) Methods: The exponential phase cells were digested and counted and seeded in 96-well plates at a density of 2×10^4/mL at 100 μl per well. After 24 hours of incubation, the cells to be tested were treated with 0.1, 1, 10, 20, 40, 60, 80, 100 μmol/L of the compounds. Each experimental group had 5 wells in each concentration, and the culture medium containing 0.4% DMSO was used as control. After 48 hours, the supernatant was discarded, and 100 μl of MTT ((2-(4,5-dimethyl-2-thiazolyl)-3,5-diphenyl-2H-[…]) (1 mg/mL) was added to each well. After another 4 hours, the supernatant was discarded, and 100 μl of DMSO was added to each well. After mixing, the absorbance was measured at 570 nm using a microplate reader. An IC50 calculation software was used to determine the half inhibitory concentration (IC50).

[2] = system: human lung cancer cells (A-549); test: MTT tumor cell proliferation inhibition test, A-549; assay type: cell-based; settings: A549 cells, 48 hours treatment, read-out: Half Inhibitory Concentration IC50 A549
Description: as §1, §2, §3, §4, §5, §6, §7, §8

[3] = system: human hepatoma cells (HepG2); test: MTT tumor cell proliferation inhibition test, HepG2; assay type: cell-based; settings: read-out: Half Inhibitory Concentration IC50 HepG2
Description: as §1, §2, §3, §4, §5, §6, §7, §8

[4] = system: HepG2, A-549, SGC-7901 tumor cells; test: MTT tumor cell proliferation inhibition test, summary over the three cell lines; assay type: cell-based, human; settings: the three cell lines tested
Description: as §1, §2, §3, §4
as §5, with “Cell in an exponential phase were chosen for the tests.” left out
as §7, with “the” for “the cells. The amount of production is proportional to the number of living”
as §8, with “After 24 hours of incubation, the cells to be tested were treated with 0.1, 1, 10, 20, 40, 60, 80, 100 μmol/L of the compounds. Each experimental group had 5 wells in each concentration, and the culture medium containing 0.4% DMSO was used as control.” left out

[5] = HepG2 cells, MTT, 48 hours treatment

Row | melting point [°C] | IC50 [1] [µM] | IC50 [2] [µM] | IC50 [3, 5] [µM] | SMILES | antitumor activities (in words) [4] | IC50 ([3]; HepG2, 48 h) [µM]
1 | 186.5 | > 100 | > 100 | > 100 | Cc1cc2c(C(C)C)c(O)c(O)c(/C=N/N=C3\C(=O)Nc4ncccc43)c2c(O)c1-c1c(C)cc2c(C(C)C)c(O)c(O)c(/C=N/N=C3/C(=O)Nc4ncccc43)c2c1O [Compound 1, (3Z,3′E)-3,3′-(((1E,1′E)-(1,1′,6,6′,7,7′-hexahydroxy-5,5′-diisopropyl-3,3′-dimethyl-[2,2′-binaphthalene]-8,8′-diyl)bis(methanylylidene))bis(hydrazine-2,1-diylidene))bis(1,3-dihydro-2H-pyrrolo[2,3-b]pyridin-2-one)] | – | –
2 | – | > 100 | 11.2 ± 2.26 | 12.5 ± 2.39 | Cc1cc2c(C(C)C)c(O)c(O)c(/C=N/N=C3\C(=O)N(C)c4ncccc43)c2c(O)c1-c1c(C)cc2c(C(C)C)c(O)c(O)c(/C=N/N=C3/C(=O)N(C)c4ncccc43)c2c1O [Compound 2, (3Z,3′E)-3,3′-(((1E,1′E)-(1,1′,6,6′,7,7′-hexahydroxy-5,5′-diisopropyl-3,3′-dimethyl-[2,2′-binaphthalene]-8,8′-diyl)bis(methanylylidene))bis(hydrazine-2,1-diylidene))bis(1-methyl-1,3-dihydro-2H-pyrrolo[2,3-b]pyridin-2-one)] | good activities | –
3 | – | 13.4 ± 1.51 | 17.4 ± 0.79 | 9.92 ± 0.79 | CCN1C(=O)/C(=N\N=C\c2c(O)c(O)c(C(C)C)c3cc(C)c(-c4c(C)cc5c(C(C)C)c(O)c(O)c(/C=N/N=C6/C(=O)N(CC)c7ncccc76)c5c4O)c(O)c23)c2cccnc21 [Compound 3, (3Z,3′E)-3,3′-(((1E,1′E)-(1,1′,6,6′,7,7′-hexahydroxy-5,5′-diisopropyl-3,3′-dimethyl-[2,2′-binaphthalene]-8,8′-diyl)bis(methanylylidene))bis(hydrazine-2,1-diylidene))bis(1-ethyl-1,3-dihydro-2H-pyrrolo[2,3-b]pyridin-2-one)] | good activities | –
4 | 209.1 | > 100 | 74.1 ± 3.46 | > 100 | Cc1cc2c(C(C)C)c(O)c(O)c(/C=N/N=C3\C(=O)N(C(C)C)c4ncccc43)c2c(O)c1-c1c(C)cc2c(C(C)C)c(O)c(O)c(/C=N/N=C3/C(=O)N(C(C)C)c4ncccc43)c2c1O [Compound 4, (3Z,3′E)-3,3′-(((1E,1′E)-(1,1′,6,6′,7,7′-hexahydroxy-5,5′-diisopropyl-3,3′-dimethyl-[2,2′-binaphthalene]-8,8′-diyl)bis(methanylylidene))bis(hydrazine-2,1-diylidene))bis(1-isopropyl-1,3-dihydro-2H-pyrrolo[2,3-b]pyridin-2-one)] | – | –
5 | – | 12.3 ± 1.43 | 10.1 ± 1.33 | 7.94 ± 0.85 | Cc1cc2c(C(C)C)c(O)c(O)c(/C=N/N=C3\C(=O)N(Cc4ccccc4)c4ncccc43)c2c(O)c1-c1c(C)cc2c(C(C)C)c(O)c(O)c(/C=N/N=C3/C(=O)N(Cc4ccccc4)c4ncccc43)c2c1O [Compound 5, (3Z,3′E)-3,3′-(((1E,1′E)-(1,1′,6,6′,7,7′-hexahydroxy-5,5′-diisopropyl-3,3′-dimethyl-[2,2′-binaphthalene]-8,8′-diyl)bis(methanylylidene))bis(hydrazine-2,1-diylidene))bis(1-benzyl-1,3-dihydro-2H-pyrrolo[2,3-b]pyridin-2-one)] | excellent antitumor activities | –
6 | 201.9 | > 100 | 62.9 ± 2.15 | > 100 | CON1C(=O)/C(=N\N=C\c2c(O)c(O)c(C(C)C)c3cc(C)c(-c4c(C)cc5c(C(C)C)c(O)c(O)c(/C=N/N=C6/C(=O)N(OC)c7ncccc76)c5c4O)c(O)c23)c2cccnc21 [Compound 6, (3Z,3′E)-3,3′-(((1E,1′E)-(1,1′,6,6′,7,7′-hexahydroxy-5,5′-diisopropyl-3,3′-dimethyl-[2,2′-binaphthalene]-8,8′-diyl)bis(methanylylidene))bis(hydrazine-2,1-diylidene))bis(1-methoxy-1,3-dihydro-2H-pyrrolo[2,3-b]pyridin-2-one)] | – | –
7 | – | – | – | – | Cc1cc2c(C(C)C)c(O)c(O)c(C=O)c2c(O)c1-c1c(C)cc2c(C(C)C)c(O)c(O)c(C=O)c2c1O [Gossypol] | – | 955 ± 0.41

Source: patent US10722500B2, “Gossypol 7-N-isatin Schiff base compounds with antitumor activities and a method of preparing the same” (SHAANXI PANLONG PHARMACEUTICAL GROUP LIMITED BY SHARE LTD., priority 2018, dated 2020)
